Test results taken from patent US20090210952A1, “Compositions and Methods Related to Controlled Gene Expression Using Viral Vectors” (priority 2005, published 2009).

How the values were obtained:
GFP expression = experiment: DOX concentration required to induce GFP expression in infected cells (fluorescent microscopy); assay type: cell-based; settings: within 48 hours; cells infected with viral particles from pHReGFPO2/EFtet/blas
Method: To determine the DOX concentration required to induce gene expression in the single vector system, different concentration of DOX were added to cells infected with viral particles derived from pHReGFPO2/EFtet/blas (titer 2.5×10^6/ml). GFP expression was monitored by fluorescent microscopy.

transgenic mice = experiment: Induction of eGFP expression in transgenic mice by drinking water containing DOX; assay type: in vivo, mouse
Method: To determine whether the inducible constructs could induce eGFP expression in vivo, the transgenic mice were fed drinking water containing 100 μg/ml DOX. GFP expression in the body (paw) and PBMCs was analyzed by fluorescent microscopy and FACS analysis before and after the transgenic mice were fed DOX.
A previous study reported that a DOX concentration of 0.1-10 mg/ml in the drinking water of transgenic mice containing a tet regulatable system, was required for inducible gene expression within the animal. To determine the concentration of DOX required for inducible expression of GFP in the transgenic mice described above, the F1 mice from CAG-founder 6# were divided into the four groups which were fed drinking water containing different concentrations of DOX including 0 ug/ml (Group 1), 4 ug/ml (Group 2), 20 ug/ml (Group 3), and 100 ug/ml (Group 4). GFP expression was monitored by visualizing GFP expression in the fingers of the transgenic mouse under UV light after 0, 1, 2, 3, 5 and 18 days of feeding the mice DOX. The intensity of the fluorescent signal in the fingers of the tested mice over the course of the experiment was observed. […] The intensity of the fluorescent signal for Groups 3 and 4 expressed their highest level of GFP expression after 5 days of DOX feeding. In addition, 4 ug/ml of DOX fed to the mice of Group 2 mice was sufficient to induce GFP expression, however the induction was delayed and the intensity was relatively weak as compared to Group 3 and 4 mice. Also of note is that the intensity of a fluorescent signal appeared in a does-dependent manner.
Using the FACS, positive blood cells expressing GFP were isolated and quantified. […] For all mice of Groups 2, 3 and 4, both the number and intensity of GFP expressing cells increased after the mice were fed DOX.
To determine the pharmacokinetics of DOX, 43% of the blood cells expressed GFP from Group 4 mice (after 18 days of DOX feeding), this level was used to set the threshold of 100 percent induction.

[1] = tested on: transgenic mice containing a tet regulatable system; settings: previous study; cited from earlier work

SMILES: C[C@H]1c2cccc(O)c2C(O)=C2C(=O)[C@]3(O)C(O)=C(C(N)=O)C(=O)[C@@H](N(C)C)[C@@H]3[C@@H](O)[C@@H]21 [DOX, doxycycline]
- DOX sufficient to induce GFP expression (GFP expression): 15 ng
- time of DOX feeding until mice began to express GFP (transgenic mice; 20 ug/ml and 100 ug/ml DOX (Group 3 and Group 4)): 1 days
- time of DOX feeding to highest level of GFP expression (transgenic mice; 20 ug/ml and 100 ug/ml DOX (Groups 3 and 4)): 5 days
- DOX concentration in drinking water sufficient to induce GFP expression (transgenic mice; F1 mice from CAG-founder 6#, fingers under UV light, induction delayed, intensity relatively weak): 4 µg/mL
- blood cells expressing GFP (transgenic mice; Group 4 (100 ug/ml DOX), after 18 days of DOX feeding, FACS): 43%
- DOX concentration in the drinking water required for inducible gene expression [1]: 0.1 to 10 mg/mL
